Laboratory results taken from ChEMBL document CHEMBL4715932, “Positional Isomers of Biphenyl Antimicrobial Peptidomimetic Amphiphiles” (ACS Med Chem Lett, 2021).

How the values were obtained:
Clostridioides difficile [1] = experiment: Antibacterial activity against Clostridioides difficile ATCC 700057 assessed as inhibition of growth visually preincubated for 2 to 4 hrs measured after 48 hrs by CLSI method; assay type: functional; conditions: time hrs <=52
[2] = Hemolytic activity in human RBC assessed as hemolysis incubated for 1 hr by CO-ADD method; assay type: ADME, cell-based, Erythrocyte; conditions: red blood cells (erythrocytes)
Escherichia coli [3] = experiment: Antimicrobial activity against Escherichia coli ATCC 25922 assessed as growth inhibition incubated for 18 hrs; assay type: functional
Cryptococcus neoformans = experiment: Antifungal activity against Cryptococcus neoformans H99 ATCC 208821 assessed as growth inhibition incubated for 36 hrs; assay type: functional; conditions: var. grubii H99 ATCC 208821
[4] = Hemolytic activity in sheep RBC assessed as hemolysis at 50 microg/ml incubated for 2 hrs; assay type: ADME, cell-based, Ovis aries, Erythrocyte; conditions: red blood cells (erythrocytes), at 50 µg/mL, read-out: Activity
Clostridioides difficile [5] = experiment: Antibacterial activity against Clostridioides difficile NSW 132 (RT027) assessed as inhibition of growth visually preincubated for 2 to 4 hrs measured after 48 hrs by CLSI method; assay type: functional; conditions: time hrs <=52
Staphylococcus aureus [6] = experiment: Antibacterial activity against methicillin-resistant Staphylococcus aureus NCTC 10442 assessed as inhibition of growth visually by CLSI method; assay type: functional
Streptococcus pneumoniae = experiment: Antibacterial activity against Streptococcus pneumoniae ATCC 49619 assessed as inhibition of growth visually by CLSI method; assay type: functional
Enterococcus faecalis [7] = experiment: Antibacterial activity against Enterococcus faecalis ATCC 29212 assessed as inhibition of growth visually by CLSI method; assay type: functional
Klebsiella pneumoniae = experiment: Antimicrobial activity against multidrug-resistant Klebsiella pneumoniae ATCC 700603 assessed as growth inhibition incubated for 18 hrs; assay type: functional
Pseudomonas aeruginosa = experiment: Antimicrobial activity against Pseudomonas aeruginosa ATCC 27853 assessed as growth inhibition incubated for 18 hrs; assay type: functional
Staphylococcus aureus [8] = experiment: Antimicrobial activity against methicillin resistant Staphylococcus aureus ATCC 43300 assessed as growth inhibition incubated for 18 hrs; assay type: functional
[9] = Cytotoxicity against human HEK-293 cells assessed as maximal inhibition at <= 32 ug/ml incubated for 23 hrs by CO-ADD method; assay type: cell-based, HEK293; conditions: dose <=32 µg/ml, read-out: Imax
[10] = Cytotoxicity against human HEK-293 cells incubated for 23 hrs by CO-ADD method; assay type: cell-based, HEK293
Escherichia coli [11] = experiment: Antibacterial activity against Escherichia coli ATCC 10418 assessed as inhibition of growth visually by CLSI method; assay type: functional
Candida albicans = experiment: Antifungal activity against Candida albicans ATCC 90028 assessed as growth inhibition incubated for 36 hrs; assay type: functional; conditions: 28A ATCC 90028
[12] = Hemolytic activity in human RBC assessed as maximal hemolysis at <= 32 ug/ml incubated for 1 hr by CO-ADD method; assay type: cell-based, Erythrocyte; conditions: red blood cells (erythrocytes), dose <=32 µg/ml, read-out: Activity
Acinetobacter baumannii = experiment: Antimicrobial activity against Acinetobacter baumannii ATCC 19606 assessed as growth inhibition incubated for 18 hrs; assay type: functional
[13] = Hemolytic activity in sheep RBC assessed as hemolysis at 5 microg/ml incubated for 2 hrs by CO-ADD method; assay type: ADME, cell-based, Ovis aries, Erythrocyte; conditions: red blood cells (erythrocytes), at 5 µg/mL, read-out: Activity
Enterococcus faecalis [14] = experiment: Antibacterial activity against vancomycin-resistant Enterococcus faecalis ATCC 51299 assessed as inhibition of growth visually by CLSI method; assay type: functional
Staphylococcus aureus [15] = experiment: Antibacterial activity against Staphylococcus aureus ATCC 29213 assessed as inhibition of growth visually by CLSI method; assay type: functional
Staphylococcus aureus [16] = experiment: Antibacterial activity against vancomycin intermediate susceptibility Staphylococcus aureus Mu50 assessed as inhibition of growth visually by CLSI method; assay type: functional

Compound | MIC (Clostridioides difficile [1]) [µg/mL] | HC50 at 1 h [2] [µg/mL] | MIC80 (Escherichia coli [3]) [µg/mL] | MIC80 (Cryptococcus neoformans) [µg/mL] | hemolysis at 2 h, 50 microg/ml [4] [%] | MIC (Clostridioides difficile [5]) [µg/mL] | MIC (Staphylococcus aureus [6]) [µg/mL] | MIC (Streptococcus pneumoniae) [µg/mL] | MIC (Enterococcus faecalis [7]) [µg/mL] | MIC80 (Klebsiella pneumoniae) [µg/mL] | MIC80 (Pseudomonas aeruginosa) [µg/mL] | MIC80 (Staphylococcus aureus [8]) [µg/mL] | Emax at 23 h [9] [%] | CC50 at 23 h [10] [µg/mL] | MIC (Escherichia coli [11]) [µg/mL] | MIC80 (Candida albicans) [µg/mL] | hemolysis at 1 h [12] [%] | MIC80 (Acinetobacter baumannii) [µg/mL] | hemolysis at 2 h, 5 microg/ml [13] [%] | MIC (Enterococcus faecalis [14]) [µg/mL] | also measured
CC(C)CCOc1cccc(-c2ccc(OCc3cn(C[C@@H](CCCCN)NC(=O)[C@@H](CCCNC(=N)N)n4cc(CC5CCCCC5)nn4)nn3)cc2)c1.Cl.Cl | 32 | > 32 | 32 | > 32 | 40.8 | 16 | 4 | 4 | 4 | > 32 | 32 | ≤ 0.25 | 43 | > 32 | 16 | 16 | 88 | 32 | 2.1 | 16 | MIC (Staphylococcus aureus [15]): 4 µg/mL; MIC (Staphylococcus aureus [16]): 4 µg/mL
CC(C)CCOc1ccc(-c2ccccc2OCc2cn(C[C@@H](CCCCN)NC(=O)[C@@H](CCCNC(=N)N)n3cc(CC4CCCCC4)nn3)nn2)cc1.Cl.Cl | 16 | > 32 | 4 | > 32 | 63 | 16 | 2 | 1 | 4 | 32 | 8 | ≤ 0.25 | 13 | > 32 | 4 | > 32 | 41 | 4 | 2.7 | 8 | MIC (Staphylococcus aureus [15]): 4 µg/mL; MIC (Staphylococcus aureus [16]): 4 µg/mL
CC(C)CCOc1ccc(-c2cccc(OCc3cn(C[C@@H](CCCCN)NC(=O)[C@@H](CCCNC(=N)N)n4cc(CC5CCCCC5)nn4)nn3)c2)cc1.Cl.Cl | 16 | > 32 | 8 | > 32 | 66.5 | 16 | 8 | 2 | 4 | 32 | 16 | ≤ 0.25 | 18 | > 32 | 32 | 8 | 102 | 32 | 2.3 | 8 | MIC (Staphylococcus aureus [15]): 4 µg/mL; MIC (Staphylococcus aureus [16]): 2 µg/mL
CC(C)CCOc1ccccc1-c1ccc(OCc2cn(C[C@@H](CCCCN)NC(=O)[C@@H](CCCNC(=N)N)n3cc(CC4CCCCC4)nn3)nn2)cc1.Cl.Cl | 16 | > 32 | 8 | > 32 | 66.4 | 8 | 4 | 1 | 4 | 32 | 8 | ≤ 0.25 | 40 | > 32 | 8 | 16 | 82 | 4 | 2 | 16 | MIC (Staphylococcus aureus [15]): 2 µg/mL; MIC (Staphylococcus aureus [16]): 4 µg/mL
CC(C)CCOc1ccc(-c2ccc(OCc3cn(C[C@@H](CCCCN)NC(=O)[C@@H](CCCNC(=N)N)n4cc(CC5CCCCC5)nn4)nn3)cc2)cc1.Cl.Cl | 16 | 9.8 | 8 | > 32 | 57.2 | 8 | 4 | 2 | 8 | 32 | 8 | ≤ 0.25 | 25 | > 32 | 32 | 1 | 94 | 32 | 1.4 | 16 | MIC (Staphylococcus aureus [15]): 4 µg/mL; MIC (Staphylococcus aureus [16]): 4 µg/mL
CC(C)CCOc1cccc(-c2cccc(OCc3cn(C[C@@H](CCCCN)NC(=O)[C@@H](CCCNC(=N)N)n4cc(CC5CCCCC5)nn4)nn3)c2)c1.Cl.Cl | 16 | > 32 | 32 | > 32 | 76.7 | 16 | 4 | 2 | 4 | > 32 | 32 | ≤ 0.25 | 55 | 28.1 | 4 | 8 | 94 | 32 | 3.7 | 8 | MIC (Staphylococcus aureus [15]): 4 µg/mL; MIC (Staphylococcus aureus [16]): 4 µg/mL
CC(C)CCOc1ccccc1-c1ccccc1OCc1cn(C[C@@H](CCCCN)NC(=O)[C@@H](CCCNC(=N)N)n2cc(CC3CCCCC3)nn2)nn1.Cl.Cl | 16 | > 32 | 8 | > 32 | 66.6 | 8 | 2 | 1 | 4 | 32 | 16 | ≤ 0.25 | 14 | > 32 | 4 | 32 | 56 | 16 | 2.1 | 8 | MIC (Staphylococcus aureus [15]): 2 µg/mL; MIC (Staphylococcus aureus [16]): 4 µg/mL
